Results as given in patent US20030177534A1, “Plant glutamine:fructose-6-phosphate amidotransferase nucleic acids” (Pioneer Hi-Bred International, Inc., priority 1998, published 2003).
One block for each compound: values may come before it.

Key:
[1] = system: yeast glycogen synthase (YGS); experiment: Activity assay of the yeast glycogen synthase (YGS) overexpressed in Pichia; assay type: biochemical; settings: 6.7 mM UDP glucosamine, 1 mM maltoheptose, 30° C., 1 hour; preliminary results
Protocol: 6. Activity Assay of the Yeast Glycogen Synthase (YGS)
The last reaction: synthesis of cationic starch by the yeast glycogen synthase overexpressed in Pichia using UDPgluosamine and glucosyl oligosaccharide primers: […]
UDP glucosamine+starch→starch periodically interspersed with 2 amino anhydroglucose
The YGS produced from secreted expression in Pichia was isolated from the growth medium, desalted into a buffer containing 50 mM Tris-HCl and 5 mM EDTA, pH 7.8, and concentrated using Centricon-30 concentrator. The preparation was used for assaying the activity of YGS.
50 mM Tris-HCl and 5 mM EDTA, pH 7.8
6.7 mM UDP glucose or UDP glucosamine
6.7 mM glucose-6-phosphate
1 mM maltoheptose ([…], from Sigma)
Protein prep: 150 μg/300-μl reaction
Incubated at 30° C. for 1 hour.
Analyze by HPLC using Dionex's CarboPac-PA1 column with a pulsed amperometry detector (to detect the formation of elongated glusyl oligo primers);

Phosphoglucomutase (PGM) = experiment: Activity assay of phosphoglucomutase (PGM), maize endosperm protein extract; assay type: biochemical; settings: extract from immature seeds, 20 days after pollination, HPLC
Protocol: (§1) 3. Activity Assay of Phosphoglucomutase (PGM)
(§2) glucosamine-6-phosphate→glucosamine-1-phosphate
(§3) 80 mM triethanolamine, pH 7.6
(§4) 20 μM glucosae-1,6-bisphosphate
(§5) 2 mM glucosamine-1-phosphate or glucosamine-6-phosphate
Maize endosperm protein extract (200-μg total protein per 1.0 ml reaction)
Ground kernels in ice-cold homogenization buffer (50 mM KH2PO4, pH 7.0; 5 mM EDTA; and 1 mM
DTT). Kernels were dissected from an ear (HN18) harvested 20 days after pollination.
Filtered the homogenate through 4-layer cheesecloth, and centrifuged at 25,000×g for 20 min at 4° C.
Desalted the supernatant into the homogenization buffer using a fast FPLC desalting column and collected the flow through.
Added PMSF and chymostatin to a final concentration of 1 mM and used the flow-through as crude PGM prep for the assay.
(§6) Incubated at 30° C. for 15 min.
(§7) * Transferred to a Centricon-30 concentrator and centrifuged at 1,400× for 20 min.
(§8) Removed 100 μl of the filtrate and added 400-μl water.
(§9) Injected 50 μl onto Dionex's CarboPac PA1 column and detected with a pulsed amperometry detector.
(§10) Eluted with 100 mM NaOH and 100 mM NaOH/1M sodium acetate (to detect formation of glucosamine-6-phosphate or glucosamine-1-phosphate): […]

UGPase = UGPase activity in the maize endosperm protein extract; assay type: biochemical; settings: extract from seeds harvested 20 days after pollination
Protocol: For UGPase Activity in the Maize Endosperm
Weighted 8-g GS3 kernels (20 days after pollination);
Added 0.5-ml Boehringer's protease inhibitor cocktail (one tablet dissolved in 1-ml water);
Blended for 10 sec, 3×at 4° C.;
Filtered through three layers of Cheesecloth at 4° C.;
Passed two 100-μl aliquots through a BioRad's BioSpin-30 column using a swing bucked rotor in Jouan at 2100 rpm, at RT, & repeated (i.e. two Bio-Spin-30 columns used for each of the 2, 100-μl aliquots);
(§11) 48 mM Tris-HCl, pH 8.5; 19 mM MgCl2; 2.3 mM β-mercaptoethanol; 1 mM UTP; inorganic pyrophosphorylase; 2 mM glucose-1-P or glucosamine-1-P;
(§12) Carried out the reactions at 30° C. for 30 minutes;
(§13) Boiled for 5 min and passed through Centrion-10;

Baker yeast UGPase = biological target: T1, Baker yeast UGPase (Saccharomyces cerevisiae, UniProt P32861); experiment: Activity assay of UDPglucose pyrophosphorylase (UGPase), Baker yeast enzyme; assay type: biochemical, Bakers yeast; settings: 2 mM substrate, 1 mM UTP, 30° C., 30 minutes, HPLC
T1 construct: UDP-glucose pyrophorylases purified from Bakers yeast (U 8501); purchased Sigma U 8501; host or cells: Bakers yeast
T1 sequence (P32861 1-499): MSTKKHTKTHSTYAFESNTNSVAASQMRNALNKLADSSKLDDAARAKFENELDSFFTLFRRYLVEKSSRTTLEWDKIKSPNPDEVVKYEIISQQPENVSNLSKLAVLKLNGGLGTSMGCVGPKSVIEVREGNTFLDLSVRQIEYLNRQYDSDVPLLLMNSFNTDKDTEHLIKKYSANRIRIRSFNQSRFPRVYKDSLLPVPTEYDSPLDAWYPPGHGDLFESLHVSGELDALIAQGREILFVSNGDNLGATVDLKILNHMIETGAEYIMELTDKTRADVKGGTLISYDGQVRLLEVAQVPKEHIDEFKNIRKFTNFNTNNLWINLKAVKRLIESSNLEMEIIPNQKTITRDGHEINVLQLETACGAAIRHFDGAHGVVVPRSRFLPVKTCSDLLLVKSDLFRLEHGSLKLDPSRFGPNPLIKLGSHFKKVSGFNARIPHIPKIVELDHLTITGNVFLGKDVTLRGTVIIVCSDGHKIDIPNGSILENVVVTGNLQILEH
Protocol: (§14) 4. Activity Assay of UDPglucose Pyrophosporylase (UGPase) [drawing 1]
(§15) The above reaction is evaluated with an alternative substrate, glucosamine-1-phosphate.
(§16) Enzymes: UDP-glucose pyrophorylases purified from Bakers yeast (U 8501) & bovine liver (U 5877) by Sigma;
(§17) UGPase assay was conducted per protocals used by Sigma;
50 mM Tris-HCl, pH 7.6; 16 mM MgCl2; 10 mM L-cystein, 1 mM UTP; inorganic pyrophosphorylase; 2 mM glucose-1-P or glucosamine-1-P;
as §12, §13

PGM from rabbit muscle = biological target: T2, PGM from rabbit muscle (Oryctolagus cuniculus, UniProt P00949); experiment: Activity assay of phosphoglucomutase (PGM), commercial rabbit muscle PGM; assay type: biochemical; settings: HPLC; for conversion of substrate by rabbit muscle PGM (glucosamine-1-phosphate to glucosamine-6-phosphate or reverse): 2 mM substrate, 30° C., 15 min, at completion/end of reaction
T2 construct: Commercial PGM from rabbit muscle; purchased Boehringer Mannheim 108375; host or cells: rabbit muscle
T2 sequence (P00949 1-562): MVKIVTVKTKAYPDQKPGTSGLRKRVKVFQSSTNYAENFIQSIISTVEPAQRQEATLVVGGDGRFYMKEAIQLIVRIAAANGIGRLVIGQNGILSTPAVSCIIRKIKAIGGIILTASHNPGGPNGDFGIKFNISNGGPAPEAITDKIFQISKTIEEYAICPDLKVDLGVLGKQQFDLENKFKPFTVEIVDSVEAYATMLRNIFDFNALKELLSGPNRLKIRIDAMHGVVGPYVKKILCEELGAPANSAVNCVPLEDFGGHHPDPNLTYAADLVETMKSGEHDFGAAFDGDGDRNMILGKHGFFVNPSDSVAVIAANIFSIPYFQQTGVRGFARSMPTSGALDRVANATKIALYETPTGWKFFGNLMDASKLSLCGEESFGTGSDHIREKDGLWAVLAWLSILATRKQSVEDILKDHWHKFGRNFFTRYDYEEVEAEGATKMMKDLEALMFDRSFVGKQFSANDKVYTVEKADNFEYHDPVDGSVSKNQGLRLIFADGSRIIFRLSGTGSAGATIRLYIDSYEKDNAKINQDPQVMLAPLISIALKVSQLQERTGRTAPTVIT
Protocol: as §1, §2, §3, §4, §5
Commercial PGM from rabbit muscle (Boehringer Mannheim, Catalog No. 108375)
as §6, §7, §8, §9, §10

bovine liver UGPase = biological target: T3, bovine liver UGPase (Bos taurus, UniProt Q07130); experiment: Activity assay of UDPglucose pyrophosphorylase (UGPase), bovine liver enzyme; assay type: biochemical; settings: 2 mM substrate, 1 mM UTP, 30° C., 30 minutes, HPLC
T3 construct: purchased Sigma U 5877; host or cells: bovine liver
T3 sequence (Q07130 1-508): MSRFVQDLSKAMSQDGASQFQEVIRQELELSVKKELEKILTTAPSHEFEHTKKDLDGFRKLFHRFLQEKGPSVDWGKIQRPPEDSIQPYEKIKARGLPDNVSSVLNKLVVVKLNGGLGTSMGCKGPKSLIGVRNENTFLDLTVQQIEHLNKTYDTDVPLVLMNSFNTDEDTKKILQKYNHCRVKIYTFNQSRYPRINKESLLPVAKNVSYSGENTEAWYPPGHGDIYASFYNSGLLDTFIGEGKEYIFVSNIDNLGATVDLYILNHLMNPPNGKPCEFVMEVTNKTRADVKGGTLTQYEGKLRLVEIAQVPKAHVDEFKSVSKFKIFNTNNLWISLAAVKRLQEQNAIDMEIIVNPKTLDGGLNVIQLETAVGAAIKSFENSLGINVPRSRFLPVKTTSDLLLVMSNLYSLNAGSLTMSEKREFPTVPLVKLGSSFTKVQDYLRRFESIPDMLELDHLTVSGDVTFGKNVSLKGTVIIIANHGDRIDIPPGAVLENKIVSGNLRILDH
Protocol: as §14, §15, §16, §17, §11, §12, §13

Compound: N[C@H]1[C@@H](OP(=O)(O)OP(=O)(O)OC[C@H]2O[C@@H](n3ccc(=O)[nH]c3=O)[C@H](O)[C@@H]2O)O[C@H](CO)[C@@H](O)[C@@H]1O [UDP glucosamine]
substrate recognition, transfer of glucosaminyl moiety to glucosyl oligo primers [1]: recognize UDP glucosamine as a substrate

Compound: N[C@H]1C(OP(=O)(O)O)O[C@H](CO)[C@@H](O)[C@@H]1O (stereo partly drawn) [glucosamine-1-phosphate]
use of substrate by PGM in maize endosperm extract (result in words) (Phosphoglucomutase (PGM)): Glucosamine-6-phosphate was detected | activity in using substrate to form UDP glucosamine (UGPase): also found in maize endosperm protein extract | substrate recognition in formation of UDP glucosamine (Baker yeast UGPase): recognized glucosamine-1-P as a substrate | conversion of substrate by rabbit muscle PGM (glucosamine-1-phosphate to glucosamine-6-phosphate or reverse) (PGM from rabbit muscle): about 60% | substrate recognition in formation of UDP glucosamine (bovine liver UGPase): recognized glucosamine-1-P as a substrate

conversion of substrate by rabbit muscle PGM (glucosamine-1-phosphate to glucosamine-6-phosphate or reverse) (PGM from rabbit muscle): about 70%
Compound: N[C@H]1C(O)O[C@H](COP(=O)(O)O)[C@@H](O)[C@@H]1O (stereo partly drawn) [glucosamine-6-phosphate]

use of substrate by PGM in maize endosperm extract (result in words) (Phosphoglucomutase (PGM)): near complete conversion | use of substrate by rabbit muscle PGM (result in words) (PGM from rabbit muscle; positive control, formation of glucose-6-phosphate): nearly depleted
Compound: O=P(O)(O)O[C@H]1O[C@H](CO)[C@@H](O)[C@H](O)[C@H]1O [glucose-1-phosphate]
